The text below walks through data of ChEMBL document CHEMBL1201862, “PubChem BioAssay data set” (2004).

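Interpolation was linear, between the two tested concentrations surrounding the appropriate level; five concentrations were tested over 48 hours in 96-well plates. The concentration for 50% growth inhibition is given as GI50.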 Activity calls are given as the source filed them. No stated cut-off is given here; in the data, active = GI50 up to about 1.1 µM and inactive = higher.

Holding throughout (assay): NCI anticancer screen, dose series, 48 h
For experiment [1], the system named is DLD-1.
The subject of experiment [2] is DMS-114.
For experiment [3], the system named is DMS-273.
The test system of experiment [4] is HOP-18.
Experiment [5] deals with KM-20L2.
In experiment [6] the test system is LXFL 529.
For experiment [7], the system named is M19-MEL.
The test system of experiment [8] is RXF 631.
Experiment [9] deals with XF498.

For the compound `CC(=O)OCc1cc2c(s1)C(=O)c1sccc1C2=O`, the GI50 in experiment [1] was 0.187 µM (active); in experiment [2], 0.149 µM (active); in [3], 0.155 µM (active); in experiment [4], 0.145 µM (active); in experiment [5], 2.24 µM (inactive); in experiment [6] it was 0.308 µM (active). Besides, the GI50 in experiment [7] is < 0.01 µM (active).
Take `COc1nc(NC2OCC(OC(C)=O)C(OC(C)=O)C2OC(C)=O)c(-c2csc(N)n2)c(=O)n1C` (stereo not drawn): the GI50 in experiment [1], in experiment [2], in experiment [4], in experiment [5], in [6] and in experiment [7] was > 100 µM (inactive) throughout. The GI50 in experiment [8] is > 100 µM (inactive).
For the compound `COc1c(O)c2c3c(cc(C)cc3c1C(C)C)OC2`, the GI50 in [1], in experiment [3], in experiment [4], in [5], in experiment [6] and in experiment [7] was > 100 µM (inactive) each time. The GI50 in [9] is > 100 µM (inactive).
With `c1ccc2c(c1)OCCOCCOc1ccccc1OCCO2`, the GI50 in experiment [1] was 61.9 µM (inactive); in experiment [2], 84.1 µM (inactive); in experiment [3], 41.2 µM (inactive); in experiment [4], 34.2 µM (inactive); in [5], 29.8 µM (inactive); in experiment [6] it was 68.5 µM (inactive). For the same compound, the GI50 in [7] is 41.9 µM (inactive).
For the compound `CCN(CC)C(=O)C/C(C)=N/NC(=O)c1ccncc1`, the GI50 in [1], in experiment [2], in experiment [3], in experiment [5], in experiment [6] and in [9] was > 100 µM (inactive) each time.
As to `O=C1CC(c2ccccc2)NCN1` (stereo not drawn), the GI50 in [1], in [2], in experiment [3], in [4], in experiment [5] and in experiment [6] was > 100 µM (inactive) each time. The GI50 in [7] was > 100 µM (inactive).
Regarding `CC1=C(c2cc(C(=O)Nc3ccc(Cl)c(Cl)c3)nc(N)n2)Sc2ccccc2N1`, the GI50 in experiment [1], in experiment [2], in experiment [3], in experiment [4], in [5] and in [6] was > 100 µM (inactive) throughout. Besides, the GI50 in [7] and in [9] was > 100 µM (inactive) each time.
`COC(=O)c1ccccc1NCc1cc(O)ccc1O`: the GI50 in experiment [1] was 20.2 µM (inactive); in experiment [3] it was 51.5 µM (inactive); in experiment [4], 14.5 µM (inactive); in [5] it was > 100 µM (inactive); in experiment [6], 17.5 µM (inactive); in experiment [7], 17.5 µM (inactive). Also, in experiment [9], the GI50 was 17.1 µM (inactive).
Regarding `CCOC1=C2C(=O)OC(=O)C2C2CCCCC2=C1` (stereo not drawn), the GI50 in experiment [1], in experiment [2], in [3], in [6], in experiment [7] and in [9] was > 100 µM (inactive) each time.
For the compound `CC(C)Cn1cnc2c(Sc3c([N+](=O)[O-])ncn3C)nc(N)nc21`, the GI50 in experiment [2], in experiment [3], in experiment [5], in experiment [6] and in experiment [7] was > 100 µM (inactive) each time.
With `CC(=O)Oc1c(C)c(-c2ccccc2)c(C)c(-c2ccccc2)c1C(=S)c1ccccc1`, the GI50 was > 100 µM (inactive) in experiment [1]; > 100 µM (inactive) in experiment [4]; 67.3 µM (inactive) in experiment [5]; > 100 µM (inactive) in experiment [6]; > 100 µM (inactive) in experiment [7]; > 100 µM (inactive) in experiment [8].
`CC1=C(O)C(=O)C2C(=O)C1C1Cc3ccccc3C21` (stereo not drawn): the GI50 in experiment [1], in experiment [3], in experiment [6], in [7], in experiment [8] and in experiment [9] was > 100 µM (inactive) each time.
Regarding `COc1cc2c(c(OC)c1OC)-c1ccc(SC)c(=O)cc1C(CC(=O)Oc1ccc(F)cc1)C2` (stereo not drawn), the GI50 in experiment [1] is 0.288 µM (active); in [2] it was 0.26 µM (active); in experiment [3], 0.193 µM (active); in experiment [4] it was 0.53 µM (active); in experiment [5], 0.124 µM (active); in experiment [6], 0.31 µM (active). The GI50 was 0.236 µM (active) in experiment [7] and 0.318 µM (active) in experiment [9].
Regarding `Cc1c(C(=O)/C=C/c2ccccc2O)c(=O)n(-c2ccccc2)n1C`, the GI50 in experiment [1] was 14.3 µM (inactive); in experiment [2], 24.6 µM (inactive); in [3], 22.2 µM (inactive); in [5] it was 31.6 µM (inactive); in [6], 16.7 µM (inactive); in experiment [7] it was 23.9 µM (inactive). Further, the GI50 in [9] is 19.1 µM (inactive).
Regarding `Cc1cc(CS(=O)(=O)/C=C/c2ccccc2[N+](=O)[O-])c(CS(=O)(=O)/C=C/c2ccccc2[N+](=O)[O-])cc1C`, the GI50 in experiment [2] is 45.1 µM (inactive); in experiment [3], > 100 µM (inactive); in experiment [5] it was > 100 µM (inactive); in [6], > 100 µM (inactive); in experiment [7], > 100 µM (inactive); in [9], 15.5 µM (inactive).
As for `O=C(O)c1c(-c2cccc3ccccc23)sc(-c2cccc3ccccc23)c1C(=O)O`, the GI50 in [1] is > 100 µM (inactive); in [2], > 100 µM (inactive); in experiment [3], > 100 µM (inactive); in experiment [4], 96.2 µM (inactive); in [5] it was 50 µM (inactive); in experiment [6], > 100 µM (inactive). Besides, the values for the GI50 in experiment [7] and in experiment [9] were > 100 µM (inactive) and 18.2 µM (inactive), respectively.
For the compound `Cc1ccc(-c2nc3c(C(=O)NCCN(C)C)cccc3[nH]2)cc1`, the GI50 in experiment [1] was 13.5 µM (inactive); in [2], 13.3 µM (inactive); in experiment [3], 9.06 µM (inactive); in [4], 15.3 µM (inactive); in experiment [7] it was 16.2 µM (inactive); in experiment [8] it was 4.89 µM (inactive).
`COc1cc2c(cc1OC)[Se]c1cc(OC)c(OC)cc1[Se]2`: the GI50 in experiment [1] was > 10 µM (inactive); in [2] it was 5.61 µM (inactive); in [3], 38.1 µM (inactive); in experiment [4], 16.6 µM (inactive); in experiment [5], > 10 µM (inactive); in [6] it was > 10 µM (inactive). Moreover, the GI50 in experiment [7] and in experiment [9] was > 10 µM (inactive) in each case.
With `COc1ccc2c3c([nH]c2c1[N+](=O)[O-])C(C)N(C)CC3` (stereo not drawn), the GI50 in [1] was > 100 µM (inactive); in experiment [2], > 100 µM (inactive); in experiment [3] it was > 100 µM (inactive); in [4], 19.4 µM (inactive); in experiment [5], 62.4 µM (inactive); in experiment [6], 69 µM (inactive). In addition, the GI50 in [7] and in experiment [9] was > 100 µM (inactive) throughout.
For `O=C(O)c1c2c(c(C(=O)O)c3ccccc13)-c1ccccc1-2`, the GI50 was 41.4 µM (inactive) in experiment [1]; 74.1 µM (inactive) in [2]; 49.3 µM (inactive) in experiment [3]; 20.4 µM (inactive) in experiment [4]; 42.7 µM (inactive) in [5]; 39.8 µM (inactive) in [6]. Further, the results for the GI50 in [7] and in experiment [9] were 69 µM (inactive) and 35.5 µM (inactive), respectively.
Consider `O=C1[C@H](Cl)[C@H]2c3cc4ccccc4nc3Oc3ccccc3N12`, for which the GI50 in [1] was 84.9 µM (inactive); in [2], 20.9 µM (inactive); in [3], 33.3 µM (inactive); in experiment [5], 43.4 µM (inactive); in experiment [6], 34 µM (inactive); in [7], 34.8 µM (inactive).
Consider `CC1=CC(=O)c2c(C=O)c(O)c(O)c(C(C)C)c2C1=O`, for which the GI50 is 23.9 µM (inactive) in experiment [1]; 22.6 µM (inactive) in [2]; 31 µM (inactive) in experiment [3]; 25.9 µM (inactive) in experiment [4]; 29.1 µM (inactive) in experiment [5]; 16.5 µM (inactive) in experiment [6]. Moreover, the GI50 was 37.9 µM (inactive) in experiment [7] and 20.6 µM (inactive) in experiment [9].
For `O=C(N/C(=C\c1ccc(/C=C(\NC(=O)c2ccccc2)c2nc3cc(Cl)ccc3[nH]2)cc1)c1nc2cc(Cl)ccc2[nH]1)c1ccccc1`, the GI50 was 27.7 µM (inactive) in [1]; 22.9 µM (inactive) in [2]; 13.8 µM (inactive) in experiment [3]; 8.91 µM (inactive) in [4]; 18 µM (inactive) in [5]; 22.9 µM (inactive) in experiment [6]. In addition, the results for the GI50 in experiment [7] and in experiment [9] were 32.2 µM (inactive) and 35.1 µM (inactive), respectively.
For `O=C(CO)C1CC2C=CC1C2` (stereo not drawn), the GI50 in [2], in experiment [3], in experiment [6], in experiment [7], in experiment [8] and in experiment [9] was > 100 µM (inactive) each time.
For the compound `Cc1cccc(C)c1NC(=O)CCCC(=O)C(C#N)c1ccccc1` (stereo not drawn), the GI50 is > 100 µM (inactive) in experiment [1]; > 10 µM (inactive) in [3]; > 10 µM (inactive) in experiment [5]; > 100 µM (inactive) in [6]; > 100 µM (inactive) in [7]; > 100 µM (inactive) in experiment [8]. Further, the GI50 in [9] was > 10 µM (inactive).
Take `C/C(=N\NC(=O)c1ccccc1O)c1cccc(/C(C)=N/NC(=O)c2ccccc2O)n1`: the figures for the GI50 in experiment [2], in experiment [6] and in [9] were 2.66 µM (inactive), 2.22 µM (inactive) and 18.6 µM (inactive), respectively.
Regarding `O=C(CSc1nnc[nH]1)C[P+](c1ccccc1)(c1ccccc1)c1ccccc1`, the GI50 in [1] was > 100 µM (inactive); in experiment [2], 97.1 µM (inactive); in experiment [3], > 100 µM (inactive); in experiment [5] it was > 100 µM (inactive); in [6], > 100 µM (inactive); in experiment [7] it was > 100 µM (inactive). Besides, in [9], the GI50 is 85.1 µM (inactive).
